Assay results as given in article doi:10.1101/2023.08.23.554426v1 (biorxiv, 2023).

What was measured:
Settings in all cases: read-out: K1; phosphate buffer pH 7.6, 25 °C; stronger site of two-site fit
HsRKIP = HsRKIP (Homo sapiens, UniProt P30086); experiment: ITC, sequential binding model
PfRKIP [1] = target: PfRKIP (Plasmodium falciparum, UniProt Q7KQK1, S96A)
PfRKIP [2] = target: PfRKIP (Plasmodium falciparum, UniProt Q7KQK1, P80L)
PfRKIP [3] = target: T1, PfRKIP (Plasmodium falciparum, UniProt Q7KQK1); experiment: ITC, sequential binding model
T1 sequence (Q7KQK1 1-190): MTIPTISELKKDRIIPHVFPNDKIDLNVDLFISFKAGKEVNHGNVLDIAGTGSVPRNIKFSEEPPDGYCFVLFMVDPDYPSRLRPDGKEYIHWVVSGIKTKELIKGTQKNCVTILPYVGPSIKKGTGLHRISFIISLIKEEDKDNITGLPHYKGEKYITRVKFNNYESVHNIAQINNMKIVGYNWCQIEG

PfRKIP [4] = target: PfRKIP (Plasmodium falciparum, UniProt Q7KQK1, H92A)

Chain of HsRKIP (P30086 whole entry): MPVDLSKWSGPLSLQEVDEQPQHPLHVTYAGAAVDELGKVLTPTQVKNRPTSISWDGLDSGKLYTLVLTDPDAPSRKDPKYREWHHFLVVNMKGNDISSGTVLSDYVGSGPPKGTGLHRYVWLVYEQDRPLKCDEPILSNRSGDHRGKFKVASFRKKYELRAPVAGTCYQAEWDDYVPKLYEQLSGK

## CCCCCCCCCCCCCCCC(=O)OC[C@H](COP(=O)(O)O[C@@H]1[C@H](O)[C@H](OP(=O)(O)O)[C@@H](O)[C@H](O)[C@H]1O)OC(=O)CCCCCCCCCCCCCCC [PtdIns(3)P]
HsRKIP
  Kd: 43.5 µM
PfRKIP [1]
  Kd: 15.6 µM
PfRKIP [2]
  Kd: 109 µM
PfRKIP [3]
  Kd: 11.5 µM
PfRKIP [4]
  Kd: 15.6 µM
